From patent US20210032257A1, “(E)-1-(4-(DIMETHYLAMINO)BUT-2-ENOYL)PYRROLIDIN-3-YL 4-((3-ISOPROPYL-5-METHYLPYRAZOLO[1,5-A]PYRIMIDIN-7-YL)AMINO)PIPERIDINE-1-CARBOXYLATE FOR INHIBITING CDK7” (Eli Lilly and Company, priority 2017, published 2021)

Key:
Test in all cases: Biomarker study proliferation (CellTiter-Glo)
Format in all cases: cell-based
CACO2 = system: CACO2
How it was run: (§1)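 First, cells are plated at 5000 per well and left overnight at 37 °C. Next, compound is added as a 10-point threefold series (10× dosing plate to 1× final). Then plates incubate 7 days, and CellTiter-Glo luminescence is measured.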

CCRFCEM = system: CCRFCEM
How it was run: as §1

EGL1 = system: EGL1
How it was run: as §1

HEC1A = system: HEC1A
How it was run: as §1

HUH1 = system: HUH1
How it was run: as §1

KURAMOCHI = system: KURAMOCHI
How it was run: as §1

MDAMB453 = system: MDAMB453
How it was run: as §1

MHCC97H = system: MHCC97H
How it was run: as §1

NCIH1048 = system: NCIH1048
How it was run: as §1

NCIH2228 = system: NCIH2228
How it was run: as §1

NCIH526 = system: NCIH526
How it was run: as §1

OVCAR5 = system: OVCAR5
How it was run: as §1

PLCPRF5 = system: PLCPRF5
How it was run: as §1

RKO = system: RKO
How it was run: as §1

SAOS2 = system: SAOS2
How it was run: as §1

SNU308 = system: SNU308
How it was run: as §1

SW480 = system: SW480
How it was run: as §1

TOV21G = system: TOV21G
How it was run: as §1

TYKNU = system: TYKNU
How it was run: as §1

[1] = 168 h, read-out: Anti-proliferation effect IC50
[2] = Homo sapiens, 168 h, read-out: Anti-proliferation effect IC50

SMILES: Cc1cc(NC2CCN(C(=O)O[C@H]3CCN(C(=O)/C=C/CN(C)C)C3)CC2)n2ncc(C(C)C)c2n1 [Example 1, [(3S)-1-[(E)-4-(dimethylamino)but-2-enoyl]pyrrolidin-3-yl] 4-[(3-isopropyl-5-methyl-pyrazolo[1,5-a]pyrimidin-7-yl)amino]piperidine-1-carboxylate]
- Anti-proliferation effect % Inh. (CACO2; CACO2, INTESTINE, 7 days): 60%
- Anti-proliferation effect Outcome (CACO2; CACO2, INTESTINE, 7 days): Cytostatic (cytostatic (IC50<1 μM and % inhibition <70%))
- IC50 (CACO2; Homo sapiens, Caco-2, 168 h, read-out: Anti-proliferation effect IC50): 189 nM
- Anti-proliferation effect % Inh. (CCRFCEM; CCRFCEM, BLOOD, 7 days): 96%
- Anti-proliferation effect Outcome (CCRFCEM; CCRFCEM, BLOOD, 7 days): Cytotoxic (cytotoxic (IC50<1 μM and % inhibition ≥70%))
- IC50 (CCRFCEM; Homo sapiens, CCRF-CEM, 168 h, read-out: Anti-proliferation effect IC50): 40 nM
- IC50 (EGL1; [1]): 41 nM
- Anti-proliferation effect % Inh. (EGL1; EGL1, 7 days): 95%
- Anti-proliferation effect Outcome (EGL1; EGL1, 7 days): Cytotoxic (cytotoxic (IC50<1 μM and % inhibition ≥70%))
- Anti-proliferation effect % Inh. (HEC1A; HEC1A, ENDOMETRIUM, 7 days): 56%
- Anti-proliferation effect Outcome (HEC1A; HEC1A, ENDOMETRIUM, 7 days): Cytostatic (cytostatic (IC50<1 μM and % inhibition <70%))
- IC50 (HEC1A; Homo sapiens, HEC-1-A, 168 h, read-out: Anti-proliferation effect IC50): 162 nM
- Anti-proliferation effect % Inh. (HUH1; HUH1, LIVER, 7 days): 72%
- Anti-proliferation effect Outcome (HUH1; HUH1, LIVER, 7 days): Cytotoxic (cytotoxic (IC50<1 μM and % inhibition ≥70%))
- IC50 (HUH1; Homo sapiens, HuH-1, 168 h, read-out: Anti-proliferation effect IC50): 128 nM
- IC50 (KURAMOCHI; [1]): 52 nM
- Anti-proliferation effect % Inh. (KURAMOCHI; KURAMOCHI, OVARY, 7 days): 88%
- Anti-proliferation effect Outcome (KURAMOCHI; KURAMOCHI, OVARY, 7 days): Cytotoxic (cytotoxic (IC50<1 μM and % inhibition ≥70%))
- IC50 (MDAMB453; Homo sapiens, MDA-MB-453, 168 h, read-out: Anti-proliferation effect IC50): 39 nM
- Anti-proliferation effect % Inh. (MDAMB453; MDAMB453, BREAST, 7 days): 56%
- Anti-proliferation effect Outcome (MDAMB453; MDAMB453, BREAST, 7 days): Cytostatic (cytostatic (IC50<1 μM and % inhibition <70%))
- IC50 (MHCC97H; [2]): 243 nM
- Anti-proliferation effect % Inh. (MHCC97H; LIVER, 7 days): 59%
- Anti-proliferation effect Outcome (MHCC97H; LIVER, 7 days): Cytostatic (cytostatic (IC50<1 μM and % inhibition <70%))
- IC50 (NCIH1048; Homo sapiens, NCI-H1048, 168 h, read-out: Anti-proliferation effect IC50): 4 nM
- Anti-proliferation effect % Inh. (NCIH1048; NCIH1048, LUNG, 7 days): 95%
- Anti-proliferation effect Outcome (NCIH1048; NCIH1048, LUNG, 7 days): Cytotoxic (cytotoxic (IC50<1 μM and % inhibition ≥70%))
- IC50 (NCIH2228; Homo sapiens, NCI-H2228, 168 h, read-out: Anti-proliferation effect IC50): 276 nM
- Anti-proliferation effect % Inh. (NCIH2228; NCIH2228, LUNG, 7 days): 57%
- Anti-proliferation effect Outcome (NCIH2228; NCIH2228, LUNG, 7 days): Cytostatic (cytostatic (IC50<1 μM and % inhibition <70%))
- IC50 (NCIH526; Homo sapiens, NCI-H526, 168 h, read-out: Anti-proliferation effect IC50): 18 nM
- Anti-proliferation effect % Inh. (NCIH526; NCIH526, LUNG, 7 days): 94%
- Anti-proliferation effect Outcome (NCIH526; NCIH526, LUNG, 7 days): Cytotoxic (cytotoxic (IC50<1 μM and % inhibition ≥70%))
- IC50 (OVCAR5; Homo sapiens, OVCAR-5, 168 h, read-out: Anti-proliferation effect IC50): 86 nM
- Anti-proliferation effect % Inh. (OVCAR5; OVCAR5, OVARY, 7 days): 74%
- Anti-proliferation effect Outcome (OVCAR5; OVCAR5, OVARY, 7 days): Cytotoxic (cytotoxic (IC50<1 μM and % inhibition ≥70%))
- IC50 (PLCPRF5; Homo sapiens, PLC-PRF-5, 168 h, read-out: Anti-proliferation effect IC50): > 10000 nM
- Anti-proliferation effect % Inh. (PLCPRF5; PLCPRF5, LIVER, 7 days): 41%
- Anti-proliferation effect Outcome (PLCPRF5; PLCPRF5, LIVER, 7 days): Insensitive (insensitive (IC50≥1 μM))
- IC50 (RKO; [2]): 118 nM
- Anti-proliferation effect % Inh. (RKO; INTESTINE, 7 days): 61%
- Anti-proliferation effect Outcome (RKO; INTESTINE, 7 days): Cytostatic (cytostatic (IC50<1 μM and % inhibition <70%))
- IC50 (SAOS2; Homo sapiens, SAOS-2, 168 h, read-out: Anti-proliferation effect IC50): 28 nM
- Anti-proliferation effect % Inh. (SAOS2; SAOS2, BONE, 7 days): 66%
- Anti-proliferation effect Outcome (SAOS2; SAOS2, BONE, 7 days): Cytostatic (cytostatic (IC50<1 μM and % inhibition <70%))
- IC50 (SNU308; [1]): 184 nM
- Anti-proliferation effect % Inh. (SNU308; SNU308, BILIARY, 7 days): 61%
- Anti-proliferation effect Outcome (SNU308; SNU308, BILIARY, 7 days): Cytostatic (cytostatic (IC50<1 μM and % inhibition <70%))
- IC50 (SW480; Homo sapiens, SW480, 168 h, read-out: Anti-proliferation effect IC50): 36 nM
- Anti-proliferation effect % Inh. (SW480; SW480, INTESTINE, 7 days): 90%
- Anti-proliferation effect Outcome (SW480; SW480, INTESTINE, 7 days): Cytotoxic (cytotoxic (IC50<1 μM and % inhibition ≥70%))
- IC50 (TOV21G; [2]): 61 nM
- Anti-proliferation effect % Inh. (TOV21G; OVARY, 7 days): 73%
- Anti-proliferation effect Outcome (TOV21G; OVARY, 7 days): Cytotoxic (cytotoxic (IC50<1 μM and % inhibition ≥70%))
- IC50 (TYKNU; [1]): 72 nM
- Anti-proliferation effect % Inh. (TYKNU; TYKNU, OVARY, 7 days): 83%
- Anti-proliferation effect Outcome (TYKNU; TYKNU, OVARY, 7 days): Cytotoxic (cytotoxic (IC50<1 μM and % inhibition ≥70%))
